In test [1] the test system is T47D. Description: Cytotoxicity against human T47D cells assessed as inhbition of cell growth measured after 48 hrs by CCK-8 method. Type of test: functional, cell-based.
In test [2] the test system is MDA-MB-231. Description: Cytotoxicity against 12 hrs BODIPY-TZ treated human MDA-MB-231 cells assessed as inhbition of cell growth measured after 48 hrs by CCK-8 method. In kind it is functional, cell-based.
For test [3], the target named is T1, von Hippel-Lindau disease tumor suppressor/Bromodomain-containing protein 4 (Homo sapiens, UniProt O60885+P40337). Description: PROTAC activity at BRD4/VHL E3 ligase in human MDA-MB-231 cells assessed as decrease in BRD4 expression at upto 2.0 uM incubated for 48 hrs by Western blot analysis. In kind it is cell-based. On the technique in general: A western blot detects proteins with antibodies after separation by electrophoresis.
T1 sequence (P40337 whole entry, looked up, other chains not shown): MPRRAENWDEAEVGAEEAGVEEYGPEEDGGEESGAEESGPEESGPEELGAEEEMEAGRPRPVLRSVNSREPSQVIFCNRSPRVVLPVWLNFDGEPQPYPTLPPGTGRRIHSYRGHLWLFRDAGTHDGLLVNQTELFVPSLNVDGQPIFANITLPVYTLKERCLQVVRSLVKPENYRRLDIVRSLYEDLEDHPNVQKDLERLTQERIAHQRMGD

For test [4], the target named is T1, von Hippel-Lindau disease tumor suppressor/Bromodomain-containing protein 4. Description: PROTAC activity at BRD4/VHL E3 ligase in human MCF7 cells assessed as decrease in BRD4 expression at upto 2.0 uM incubated for 48 hrs by Western blot analysis. Type of test: cell-based.
Test [5] has the same target. Description: PROTAC activity at BRD4/VHL E3 ligase in 12 hrs BODIPY-TZ treated human MCF7 cells assessed as reduction in BRD4 expression at upto 2.0 uM incubated for 48 hrs by Western blot analysis. Type of test: cell-based.
For test [6] the target is unchanged. Description: PROTAC activity at BRD4/VHL E3 ligase in 12 hrs BODIPY-TZ treated human MDA-MB-231 cells assessed as degradation of BRD4 expression incubated for 48 hrs by Western blot analysis. Type of test: cell-based.
Test [7] deals with MCF7. Description: Antitumor activity against IR808-TZ treated human MCF7 cells xenografted in BALB/c nude mouse assessed as fold increase in tumor volume at 20 mg/kg measured at day 23 post injection. In kind it is functional. As to conditions: time 23 day. (A xenograft is tissue or cells of one species grown in another, often human tumour cells in immunodeficient mice.)
Test [8] has as its target T1, von Hippel-Lindau disease tumor suppressor/Bromodomain-containing protein 4. Description: In vivo PROTAC activity at BRD4/VHL E3 ligase in BALB/c nude mouse xenografted with human MCF7 cells assessed as reduction in BRD4 protein level in tumor 20 mg/kg measured after 48 hrs by Western blot analysis. In kind it is functional, organism-based.
The subject of test [9] is MCF7. Description: Antitumor activity against human MCF7 cells xenografted in BALB/c nude mouse assessed as apoptosis at 20 mg/kg measured after 48 hrs by Western blot analysis. Type of test: functional, organism-based.

The source made the active and inactive calls. The calls are words filed in the database; no cut-off is given here.

This is an account of results in ChEMBL document CHEMBL5370648, “Rational Design of Bioorthogonally Activatable PROTAC for Tumor-Targeted Protein Degradation” (J Med Chem, 2023).

`CC1=CC(C)=[N+]2C1=C(c1cccc(-c3nnc(C)nn3)c1)c1c(C)cc(C)n1[B-]2(F)F`: the half-inhibitory concentration (IC50) – broadly, the concentration at which inhibition is half-maximal – is 1760 nM in [1] and 326 nM in [2]. Besides, the result in test [3], in [4], in test [8] and in [9] was inactive. Further, the result in test [5] and in test [6] was Active. Besides, the “fold change (FC)” value in [7] was found to be 1.74.
